The test system of one experiment is MV-4-11 cells. As to the kind of experiment: In vitro cell proliferation assay (CellTiter-Glo), MV-4-11. The format is cell-based. Particulars: Homo sapiens, MV4-11, 72 hours. As to the method:
In Vitro Cell Proliferation Assay
MV-4-11 (biphenotypic B myelomonocytic leukemia) cell line was obtained from ATCC.
Media for MV-4-11 cell line contained RPMI 1640 or EMEM plus 2 mM Glutamine and 10% Fetal bovine serum.
BaF3-PIM1 and MV-4-11 cells were seeded at 125 cells/well and 1250 cells/well respectively in a 384-well white plates in complete medium and treated with compounds dissolved in 0.1% DMSO, 24 h after seeding.
The cells were incubated at 37° C. and 5% CO2 and after 72 hours the plates were processed using CellTiter-Glo assay (Promega) following the manufacturer's instruction.
CellTiter-Glo was a homogenous method based on the quantification of the ATP present, an indicator of metabolitically active cells. ATP was quantified using a system based on luciferase and D-luciferin resulting into light generation. The luminescent signal was proportional to the number of cells present in culture.
Briefly 25 μl/well reagent solution were added to each wells and after 5 minutes shacking microplates were red by Envision (PerkinElmer) luminometer. The luminescent signal was proportional to the number of cells present in culture.
Inhibitory activity was evaluated comparing treated versus control data using Assay Explorer (MDL) program. IC50 was calculated using sigmoidal interpolation curve.

For another experiment, the target named is human PIM2 (Homo sapiens (Human), UniProt Q9P1W9). As to the kind of experiment: PIM2 kinase inhibition assay: Dowex technique. Type of experiment: biochemical. Particulars: ATP 4 μM, Aktide 5 μM, enzyme 1.5 nM; read-out: PIM-2 IC50. A digest of the protocol: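 Radiometric Dowex read-out, run as for PIM1, with 50 mM HEPES pH 7.5, 1 mM MgCl2, 1 mM DTT, 3 μM Na3VO4 and 0.2 mg/mL BSA. Final conditions: 5 μM Aktide substrate, 4 μM ATP spiked with 1 nM 33P-γ-ATP, 1.5 nM full-length human enzyme.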
human PIM2, sequence (Q9P1W9 whole entry): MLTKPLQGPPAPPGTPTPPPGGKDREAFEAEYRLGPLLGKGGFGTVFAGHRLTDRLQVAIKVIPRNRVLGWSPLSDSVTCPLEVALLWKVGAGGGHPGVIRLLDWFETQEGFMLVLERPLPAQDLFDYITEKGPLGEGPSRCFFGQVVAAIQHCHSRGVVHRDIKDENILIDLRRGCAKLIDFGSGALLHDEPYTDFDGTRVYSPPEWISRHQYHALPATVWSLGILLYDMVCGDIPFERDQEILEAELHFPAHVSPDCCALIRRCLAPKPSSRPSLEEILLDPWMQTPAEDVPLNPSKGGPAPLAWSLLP

For a further experiment, the target named is human PIM1 (Homo sapiens (Human), UniProt P11309). As to the kind of experiment: Biochemical assay for inhibitors of PIM1 kinase activity (trans-phosphorylation, Dowex technique). The note with it: ATP 200 μM, Aktide 25 μM, enzyme 1 nM; read-out: PIM-1 IC50. A digest of the protocol:
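Full-length human PIM1 (1 nM) phosphorylates Aktide (25 μM) with 200 μM ATP plus 6 nM ^33P-γ-ATP in HEPES 50 mM pH 7.5, 10 mM MgCl2, 1 mM DTT, 3 μM NaVO3, 0.2 mg/mL BSA. Unreacted ATP captured on Dowex resin, supernatant β-counted; IC50 from ten-point 1:3 dilution sigmoidal fit.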

In the next experiment the test system is BaF3-PIM1 cells. As to the kind of experiment: In vitro cell proliferation assay (CellTiter-Glo), BaF3-PIM1. Particulars: 72 hours. Type of experiment: cell-based. (In general: ATP-based viability assays read luminescence as a measure of living cells.)

Structures can show the parent of a compound that is named as a salt.

A word on the IC50: it is the concentration at which inhibition is half-maximal.

human PIM1, sequence (P11309 whole entry): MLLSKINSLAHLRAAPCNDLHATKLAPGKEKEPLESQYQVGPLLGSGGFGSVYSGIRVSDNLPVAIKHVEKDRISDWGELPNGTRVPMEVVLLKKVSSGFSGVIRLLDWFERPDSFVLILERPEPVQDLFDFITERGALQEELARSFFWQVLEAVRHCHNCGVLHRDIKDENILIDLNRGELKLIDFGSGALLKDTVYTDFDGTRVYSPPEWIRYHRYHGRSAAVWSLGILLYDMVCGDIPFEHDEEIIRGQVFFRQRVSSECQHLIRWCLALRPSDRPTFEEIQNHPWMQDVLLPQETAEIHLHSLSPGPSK

For the compound `CCOc1ccc(-c2c(-c3cccc(OC(F)(F)F)c3)cc3n2[C@@H](CCN)CNC3=O)cc1F` [Compound 127, (4S)-4-(2-aminoethyl)-6-(4-ethoxy-3-fluorophenyl)-7-[3-(trifluoromethoxy)phenyl]-3,4-dihydropyrrolo[1,2-a]pyrazin-1(2H)-one hydrochloride], the concentration for half-maximal inhibition (IC50) in the experiment with MV-4-11 cells was found to be 433 nM; on human PIM2, 24 nM; at human PIM1, 12 nM; in the experiment with BaF3-PIM1 cells, 125 nM.

For the compound `NCCC1CNC(=O)c2cc(-c3cccc(OC(F)(F)F)c3)c(-c3ccsc3)n21` (stereo not drawn) [Compound 29, 4-(2-aminoethyl)-6-(thiophen-3-yl)-7-[3-(trifluoromethoxy)phenyl]-3,4-dihydropyrrolo[1,2-a]pyrazin-1(2H)-one hydrochloride], the IC50 amounted to 2620 nM in the experiment with MV-4-11 cells, 143 nM on human PIM2, 19 nM on human PIM1 and 315 nM with BaF3-PIM1 cells.

Consider `CC(=O)c1ccc(-c2c(-c3cccc(OC(F)(F)F)c3)cc3n2[C@@H](CCCN)CNC3=O)cc1` [Compound 110, (4S)-6-(4-acetylphenyl)-4-(3-aminopropyl)-7-[3-(trifluoromethoxy)phenyl]-3,4-dihydropyrrolo[1,2-a]pyrazin-1(2H)-one hydrochloride], for which the half-maximal inhibitory concentration (IC50) with MV-4-11 cells is 3200 nM; at human PIM2, 129 nM; at human PIM1, 22 nM; in the experiment with BaF3-PIM1 cells it was 3900 nM.

As to `CC(C)(C)c1ccc(-c2c(-c3cccc(OC(F)(F)F)c3)cc3n2[C@@H](CCN)CNC3=O)cc1` [Compound 124, (4S)-4-(2-aminoethyl)-6-(4-tert-butylphenyl)-7-[3-(trifluoromethoxy)phenyl]-3,4-dihydropyrrolo[1,2-a]pyrazin-1(2H)-one hydrochloride], the IC50 came out at 468 nM in the experiment on MV-4-11 cells, 160 nM at human PIM2, 24 nM at human PIM1 and 130 nM with BaF3-PIM1 cells.

With `CSc1ccc(-c2c(-c3cccc(OC(F)(F)F)c3)cc3n2[C@@H](CCN)CNC3=O)cc1` [Compound 123, (4S)-4-(2-aminoethyl)-6-[4-(methylsulfanyl)phenyl]-7-[3-(trifluoromethoxy)phenyl]-3,4-dihydropyrrolo[1,2-a]pyrazin-1(2H)-one hydrochloride], the IC50 in the experiment on MV-4-11 cells came to 730 nM; on human PIM2 it was 45 nM; at human PIM1, 16 nM; in the experiment with BaF3-PIM1 cells it was 89 nM.

On to `NCCC[C@H]1CNC(=O)c2cc(-c3cccc(OC(F)(F)F)c3)c(-c3ccsc3)n21` [Compound 103, (4S)-4-(3-aminopropyl)-6-(thiophen-3-yl)-7-[3-(trifluoromethoxy)phenyl]-3,4-dihydropyrrolo[1,2-a]pyrazin-1(2H)-one hydrochloride], for which the IC50 amounted to 2930 nM in the experiment with MV-4-11 cells, 153 nM at human PIM2, 11 nM on human PIM1 and 1180 nM with BaF3-PIM1 cells.

Regarding `NCC[C@H]1CNC(=O)c2cc(-c3cccc(OC(F)(F)F)c3)c(-c3ccc(CN4CCOCC4)cc3)n21` [Compound 99, (4S)-4-(2-aminoethyl)-6-[4-(morpholin-4-ylmethyl)phenyl]-7-[3-(trifluoromethoxy)phenyl]-3,4-dihydropyrrolo[1,2-a]pyrazin-1(2H)-one hydrochloride], the half-maximal inhibitory concentration (IC50) in the experiment with MV-4-11 cells amounted to 672 nM; on human PIM2 it was 7 nM; at human PIM1, 2 nM; in the experiment with BaF3-PIM1 cells it was 410 nM.

With `NCC[C@H]1CNC(=O)c2cc(-c3cccc(OC(F)(F)F)c3)c(-c3ccccc3)n21` [Compound 87, (4S)-4-(2-aminoethyl)-6-phenyl-7-[3-(trifluoromethoxy)phenyl]-3,4-dihydropyrrolo[1,2-a]pyrazin-1(2H)-one], the IC50 in the experiment with MV-4-11 cells came to 3610 nM; at human PIM2, 38 nM; on human PIM1, 9 nM; with BaF3-PIM1 cells, 202 nM.

With `CC(=O)c1ccc(-c2c(-c3cccc(OC(F)(F)F)c3)cc3n2[C@@H](CCN)CNC3=O)cc1` [Compound 95, (4S)-6-(4-acetylphenyl)-4-(2-aminoethyl)-7-[3-(trifluoromethoxy)phenyl]-3,4-dihydropyrrolo[1,2-a]pyrazin-1(2H)-one hydrochloride], the IC50 came out at 1260 nM in the experiment on MV-4-11 cells, 17 nM at human PIM2, 6 nM on human PIM1 and 573 nM in the experiment with BaF3-PIM1 cells.

With `NCCC1CNC(=O)c2cc(-c3cc(Cl)ccc3F)c(-c3ccsc3)n21` (stereo not drawn) [Compound 55, 4-(2-aminoethyl)-7-(5-chloro-2-fluorophenyl)-6-(thiophen-3-yl)-3,4-dihydropyrrolo[1,2-a]pyrazin-1(2H)-one hydrochloride], the IC50 worked out at 3600 nM with MV-4-11 cells, 77 nM at human PIM2, 17 nM at human PIM1 and 140 nM in the experiment with BaF3-PIM1 cells.

For `NCC[C@H]1CNC(=O)c2cc(-c3cccc(OC(F)(F)F)c3)c(-c3ccc(S(N)(=O)=O)cc3)n21` [Compound 120, 4-{(4S)-4-(2-aminoethyl)-1-oxo-7-[3-(trifluoromethoxy)phenyl]-1,2,3,4-tetrahydropyrrolo[1,2-a]pyrazin-6-yl}benzenesulfonamide hydrochloride], the IC50 was 5350 nM in the experiment on MV-4-11 cells, 3 nM at human PIM2, 1 nM on human PIM1 and 1360 nM in the experiment on BaF3-PIM1 cells.

Regarding `CS(=O)(=O)NCC[C@H]1CNC(=O)c2cc(-c3cccc(OC(F)(F)F)c3)c(-c3ccccc3)n21` [Compound 147, N-(2-{(4S)-1-oxo-6-phenyl-7-[3-(trifluoromethoxy)phenyl]-1,2,3,4-tetrahydropyrrolo[1,2-a]pyrazin-4-yl}ethyl)methanesulfonamide], the half-inhibitory concentration (IC50) in the experiment with MV-4-11 cells was found to be 3620 nM; at human PIM2, 172 nM; on human PIM1 it was 26 nM; in the experiment on BaF3-PIM1 cells, 638 nM.

As to `CN(C)Cc1ccc(-c2c(-c3cccc(OC(F)(F)F)c3)cc3n2[C@@H](CCCN)CNC3=O)cc1` [Compound 134, (4S)-4-(3-aminopropyl)-6-{4-[(dimethylamino)methyl]phenyl}-7-[3-(trifluoromethoxy)phenyl]-3,4-dihydropyrrolo[1,2-a]pyrazin-1(2H)-one dihydrochloride], the IC50 with MV-4-11 cells was 7060 nM; on human PIM2, 66 nM; at human PIM1, 2 nM; in the experiment with BaF3-PIM1 cells, 4320 nM.

In the case of `NCC[C@H]1CNC(=O)c2cc(-c3cccc(OC(F)(F)F)c3)c(-c3cccc(F)c3)n21` [Compound 121, (4S)-4-(2-aminoethyl)-6-(3-fluorophenyl)-7-[3-(trifluoromethoxy)phenyl]-3,4-dihydropyrrolo[1,2-a]pyrazin-1(2H)-one hydrochloride], the IC50 in the experiment on MV-4-11 cells is 660 nM; at human PIM2, 12 nM; on human PIM1, 3 nM; in the experiment on BaF3-PIM1 cells, 86 nM.

On to `Cc1cccc(-c2c(-c3cccc(OC(F)(F)F)c3)cc3n2C(CCN)CNC3=O)c1` (stereo not drawn) [Compound 31, 4-(2-aminoethyl)-6-(3-methylphenyl)-7-[3-(trifluoromethoxy)phenyl]-3,4-dihydropyrrolo[1,2-a]pyrazin-1(2H)-one hydrochloride], for which the IC50 in the experiment with MV-4-11 cells turned out to be 2590 nM; on human PIM2, 51 nM; on human PIM1, 23 nM; with BaF3-PIM1 cells, 326 nM.

In the case of `COc1ccc(-c2c(-c3cccc(OC(F)(F)F)c3)cc3n2[C@@H](CCN)CNC3=O)cc1Cl` [Compound 129, (4S)-4-(2-aminoethyl)-6-(3-chloro-4-methoxyphenyl)-7-[3-(trifluoromethoxy)phenyl]-3,4-dihydropyrrolo[1,2-a]pyrazin-1(2H)-one hydrochloride], the IC50 stood at 710 nM in the experiment with MV-4-11 cells, 12 nM at human PIM2, 3 nM on human PIM1 and 198 nM with BaF3-PIM1 cells.

Turning to `Cc1cccc(-c2c(-c3cc(Cl)ccc3F)cc3n2C(CCN)CNC3=O)c1` (stereo not drawn) [Compound 59, 4-(2-aminoethyl)-7-(5-chloro-2-fluorophenyl)-6-(3-methylphenyl)-3,4-dihydropyrrolo[1,2-a]pyrazin-1(2H)-one hydrochloride], the IC50 came to 4620 nM in the experiment with MV-4-11 cells, 114 nM on human PIM2, 40 nM at human PIM1 and 323 nM with BaF3-PIM1 cells.

Take `NCCC1CNC(=O)c2cc(-c3cccc(OC(F)(F)F)c3)c(-c3ccccc3)n21` (stereo not drawn) [Compound 28, 4-(2-aminoethyl)-6-phenyl-7-[3-(trifluoromethoxy)phenyl]-3,4-dihydropyrrolo[1,2-a]pyrazin-1(2H)-one hydrochloride]: the IC50 in the experiment with MV-4-11 cells stood at 1740 nM; at human PIM2 it was 55 nM; on human PIM1, 7 nM; in the experiment on BaF3-PIM1 cells it was 275 nM.

For the origin of these results see patent publication US9181258B2, “Substituted 3,4-dihydropyrrolo[1,2-a]pyrazin-1(2H)-ones as protein kinase inhibitors” (NERVIANO MEDICAL SCIENCES S.R.L., priority 2011, dated 2015).
